Measurements published in PubChem BioAssay (NCI).
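Where inhibition never reached the appropriate level, the endpoint shown equals the highest concentration tested. Otherwise, values were interpolated linearly from a five-concentration, 48-hour dose response in 96-well plates. TGI: total growth inhibition.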

Assays:
Test in all cases: growth of human tumour cells (NCI), 48 h
[1] = system: EKVX NSCLC
[2] = system: NCI-H460 lung
[3] = system: HCC-2998 colon
[4] = system: 786-0 renal
[5] = system: ACHN renal
[6] = system: K-562 leukemia
[7] = system: UACC-62 melanoma
[8] = system: HS 578T breast
[9] = system: MDA-MB-435
[10] = system: M14 melanoma
[11] = system: OVCAR-4 ovarian
[12] = system: MOLT-4 leukemia
[13] = system: SN12C renal
[14] = system: U251 CNS
[15] = system: IGROV1 ovarian
[16] = system: HCT-15 colon
[17] = system: TK-10 renal
[18] = system: MALME-3M melanoma
[19] = system: SF-295 CNS
[20] = system: SF-268 CNS
[21] = system: SK-MEL-28 melanoma
[22] = system: HOP-62 NSCLC
[23] = system: MDA-N
[24] = system: A549 NSCLC
[25] = system: UACC-257 melanoma
[26] = system: KM12 colon
[27] = system: NCI/ADR-RES ovarian
[28] = system: HT29 colon
[29] = system: DU-145 prostate
[30] = system: OVCAR-5 ovarian
[31] = system: OVCAR-8 ovarian
[32] = system: SK-MEL-5 melanoma
[33] = system: NCI-H23 lung
[34] = system: SF-539 CNS
[35] = system: A498 renal
[36] = system: COLO 205 colon
[37] = system: SW-620 colon
[38] = system: NCI-H226 lung
[39] = system: PC-3 prostate
[40] = system: HCT-116 colon
[41] = system: BT-549 breast
[42] = system: SR leukemia
[43] = system: SNB-75 CNS
[44] = system: UO-31 renal
[45] = system: SNB-19 CNS
[46] = system: T-47D breast
[47] = system: RPMI-8226 leukemia
[48] = system: SK-OV-3 ovarian
[49] = system: MDA-MB-231 breast
[50] = system: OVCAR-3 ovarian
[51] = system: MCF7 breast
[52] = system: LOX IMVI melanoma
[53] = system: SK-MEL-2 melanoma
[54] = system: RXF 393 renal
[55] = system: CCRF-CEM leukemia
[56] = system: HOP-92 NSCLC
[57] = system: NCI-H522 lung
[58] = system: CAKI-1 renal

## CN(C)CCNC(=O)c1cccc2c(NC(CCCN=C(N)N)C(=O)O)c3ccccc3[n+](C)c12 (stereo not given)
[1]
  TGI: > 100 µM
[2]
  TGI: > 100 µM
[3]
  TGI: > 100 µM
[4]
  TGI: > 100 µM
[5]
  TGI: > 100 µM
[6]
  TGI: > 100 µM
[7]
  TGI: > 100 µM
[8]
  TGI: > 100 µM
[9]
  TGI: > 100 µM
[10]
  TGI: > 100 µM
[11]
  TGI: > 100 µM
[12]
  TGI: > 100 µM
[13]
  TGI: > 100 µM
[14]
  TGI: > 100 µM
[15]
  TGI: > 100 µM
[16]
  TGI: > 100 µM
[17]
  TGI: > 100 µM
[18]
  TGI: > 100 µM
[19]
  TGI: > 100 µM
[20]
  TGI: 92.6 µM
[21]
  TGI: > 100 µM
[22]
  TGI: > 100 µM
[23]
  TGI: > 100 µM
[24]
  TGI: > 100 µM
[25]
  TGI: > 100 µM
[26]
  TGI: > 100 µM
[27]
  TGI: 80.9 µM
[28]
  TGI: > 100 µM
[29]
  TGI: > 100 µM
[30]
  TGI: > 100 µM
[31]
  TGI: > 100 µM
[32]
  TGI: > 100 µM
[33]
  TGI: > 100 µM
[34]
  TGI: > 100 µM
[35]
  TGI: > 100 µM
[36]
  TGI: > 100 µM
[37]
  TGI: > 100 µM
[38]
  TGI: 94.5 µM
[39]
  TGI: > 100 µM
[40]
  TGI: > 100 µM
[41]
  TGI: > 100 µM
[42]
  TGI: > 100 µM
[43]
  TGI: > 100 µM
[44]
  TGI: > 100 µM
[45]
  TGI: > 100 µM
[46]
  TGI: > 100 µM
[47]
  TGI: > 100 µM
[48]
  TGI: > 100 µM
[49]
  TGI: > 100 µM
[50]
  TGI: > 100 µM
[51]
  TGI: > 100 µM
[52]
  TGI: > 100 µM
[53]
  TGI: > 100 µM

## O=C1/C(=C\c2cccc(Oc3ccccc3)c2)S(=O)(=O)C(c2ccccc2)N1c1cc(Cl)ccc1Cl (stereo not given)
[1]
  TGI: > 100 µM
[2]
  TGI: > 100 µM
[3]
  TGI: 56.6 µM
[4]
  TGI: 37.4 µM
[5]
  TGI: 44.6 µM
[6]
  TGI: > 100 µM
[7]
  TGI: 36.7 µM
[8]
  TGI: 88.1 µM
[9]
  TGI: 36.5 µM
[54]
  TGI: 33.8 µM
[10]
  TGI: 44.1 µM
[11]
  TGI: > 100 µM
[12]
  TGI: > 100 µM
[13]
  TGI: 35 µM
[14]
  TGI: > 100 µM
[15]
  TGI: 56.2 µM
[55]
  TGI: 40.7 µM
[16]
  TGI: 74.6 µM
[17]
  TGI: 57.3 µM
[18]
  TGI: 42.4 µM
[19]
  TGI: 33.1 µM
[20]
  TGI: 42.3 µM
[21]
  TGI: 36.7 µM
[22]
  TGI: 43.3 µM
[23]
  TGI: 28.8 µM
[24]
  TGI: > 100 µM
[25]
  TGI: 47.9 µM
[26]
  TGI: 76.9 µM
[56]
  TGI: 40.4 µM
[27]
  TGI: 94.4 µM
[57]
  TGI: 40 µM
[28]
  TGI: > 100 µM
[29]
  TGI: 76.7 µM
[30]
  TGI: 58.6 µM
[31]
  TGI: 32.7 µM
[32]
  TGI: 33.3 µM
[33]
  TGI: 44.3 µM
[34]
  TGI: > 100 µM
[35]
  TGI: > 100 µM
[36]
  TGI: 48.4 µM
[37]
  TGI: 10.8 µM
[39]
  TGI: > 100 µM
[40]
  TGI: 21.2 µM
[41]
  TGI: 35.6 µM
[58]
  TGI: > 100 µM
[42]
  TGI: > 100 µM
[43]
  TGI: 69.6 µM
[44]
  TGI: 39.6 µM
[45]
  TGI: 35.7 µM
[46]
  TGI: 82.4 µM
[47]
  TGI: > 100 µM
[48]
  TGI: 88.3 µM
[49]
  TGI: > 100 µM
[50]
  TGI: 41.9 µM
[51]
  TGI: 45.1 µM
[52]
  TGI: 23.8 µM
[53]
  TGI: 76.9 µM
